Experimental data published in patent US11446276B2, “Extreme low dose THC as a therapeutic and prophylactic agent for Alzheimer's disease” (University of South Florida, priority 2015, dated 2022).
“Also recorded” adds a separate entry of the source.

How the values were obtained:
[1] = system: Aβ in N2a/AβPPswe cells; experiment: Sandwich ELISA of Aβ in N2a/AβPPswe cells treated with THC and CB1 inhibitor rimonabant; assay type: cell-based, human; conditions: 25 nM THC with no rimonabant; 36 hour and later time points; FIG. 2
Description: The mechanism of action was elucidated for THC's effect on Aβ levels using a sandwich ELISA assay. N2a/AβPPswe cells, as discussed in Example 1, were suspended to 2×10^5/mL, 3 mL plated into each well, and grown in DMEM with 10% fetal bovine serum, 100 U/mL penicillin, 100 μg/mL streptomycin, and 400 μg/mL G418 (Invitrogen), at 37° C. in the presence of 5% CO2. N2a/AβPPswe cells were subcultured using trypsin, and pipetted numerous times to ensure cells were separated into individual cells. Cells were counted, as provided in Example 1, and proper amount of cell medium and fresh medium was added into new flasks according to the ratio of dilution. Pipetting was performed 10 times to homogenize cells, and 3 mL of cells were seeded into medium into each 6 well plate. When one pipette was used up, the cells were mixed in the flask before using them for the next pipette. Compounds were suspended in DMSO.
12 hours after cells were plated, cells were treated with 25 nM of Δ9-THC (T4764-1ML Sigma Aldrich, Merck KGaA; Darmstadt, Germany), with the known inhibitor of the CB1 receptor, rimonabant, at 0 μM, 100 μM, 10 μM, 1 μM, or 0.1 μM rimonabant. Untreated N2a/AβPPswe cells were used as a control. Treatment was then washed out, i.e. the medium was then removed from the cultures and 3 mL of media containing the treatment compounds were added. Cells were collected at 12 hours afterwards, 48 hours afterwards, 60 hours afterwards, and 72 hours afterwards, and ELISA was conducted on the cells.
ELISA assay was performed on the cells using 50 μL of goat anti-PWT1-42 antibody solution, which was incubated overnight, followed by a 1-hour incubation with 0.1% I-block buffer. The tissue culture supernatant was diluted 1:10 with diluent buffer containing a protease inhibitor. Standards were prepared by serial dilution, as provided in Example 1. The plate was washed and 50 μL of sample or standard was added with triplication. 50 μL of both Biosource 40/42 (HS) (primary antibody) Aβ and a standard solution was added to each well and incubated for 3 hours followed by 5× wash with PBST. […]

[2] = system: phosphorylated GSK-3β; experiment: Western blot of phosphorylated GSK-3β in N2a/AβPPswe cells; assay type: cell-based; conditions: 25 nM, 2.5 nM, 0.25 nM THC; 36 hours; FIGS. 5D, 10B
Description: Cells were plated in 6 well plate overnight with 25 nM THC, 2.5 nM THC, or 0.25 nM THC added into each designated wells in duplicate. Cells were lysed after 36 hours incubation. Proteins were loaded onto SDS-page gel and then blotted with each antibody after transfer onto PVDF membrane.
Using 12% Tris-Glycine gel system (Bio-rad), proteins were separated by electrophoresis and semi-dry transferred to a PVDF membrane. GSK-3β and β-actin antibodies were used as primary antibody. After adding secondary antibody, the membranes were exposed using ECL substrate (Pierce). After membrane was developed, film with bands were scanned, followed by analysis of gel-quantification software (QuantityOne, from Biorad).

CCCCCc1cc(O)c2c(c1)OC(C)(C)[C@@H]1CCC(C)=C[C@@H]21 [THC, Δ9-tetrahydrocannabinol]
Aβ levels [1]: significantly lower Aβ; also recorded: marked decreases | Phosphorylated GSK-3β, THC alone [2]: decreases the phosphorylation of GSK-3β; also recorded: decrease of phosphorylated GSK-3β; also recorded: decreases phosphorylated GSK-3β
